Experimental data published in ChEMBL document CHEMBL1201862, “PubChem BioAssay data set” (2004).
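Protocol summary: plate cells (96-well), add compound at 5 concentrations, incubate 48 h, interpolate endpoints linearly. At the GI50, growth is halved.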 Calls of active or inactive are those of the source. Cut-off read from the data, not from the text of the source: active = GI50 up to about 1.1 µM and inactive = higher.

How the values were obtained:
Experiment in all cases: inhibition of tumour cell growth, NCI panel, 48 h
BT-549 = tested on: BT-549
DU-145 = tested on: DU-145
Hs-578T = tested on: Hs-578T
MDA-N = tested on: MDA-N
PC-3 = tested on: PC-3
T47D = tested on: T47D
MDA-MB-231 = tested on: MDA-MB-231
RXF 631 = tested on: RXF 631

## O=C(N/N=C\c1cccc2ccccc12)Nc1ccccc1
BT-549
  GI50: > 100 µM (inactive)
DU-145
  GI50: > 100 µM (inactive)
Hs-578T
  GI50: > 100 µM (inactive)
MDA-N
  GI50: > 100 µM (inactive)
PC-3
  GI50: > 100 µM (inactive)
T47D
  GI50: > 100 µM (inactive)

## COc1ccc(N2CN(C)CSC2=S)cc1
BT-549
  GI50: 75.5 µM (inactive)
DU-145
  GI50: > 100 µM (inactive)
Hs-578T
  GI50: > 100 µM (inactive)
MDA-MB-231
  GI50: > 100 µM (inactive)
PC-3
  GI50: > 100 µM (inactive)
T47D
  GI50: 54 µM (inactive)

## COC(=O)Cc1c(-c2c(CC(=O)OC)c3ccccc3n2C2OC(COC(C)=O)C(OC(C)=O)C(OC(C)=O)C2OC(C)=O)[nH]c2ccccc12 (configuration not stated)
BT-549
  GI50: > 100 µM (inactive)
DU-145
  GI50: > 100 µM (inactive)
MDA-MB-231
  GI50: 43.2 µM (inactive)
MDA-N
  GI50: > 100 µM (inactive)
PC-3
  GI50: > 100 µM (inactive)

## CC(=O)Nc1ccc2[nH]c(C(=O)N3CC(CCl)c4c3cc(N)c3ccccc43)cc2c1 (configuration not stated)
BT-549
  GI50: < 0.0312 µM (active)
DU-145
  GI50: < 0.01 µM (active)
Hs-578T
  GI50: < 0.01 µM (active)
MDA-MB-231
  GI50: < 0.0237 µM (active)
MDA-N
  GI50: 0.0177 µM (active)
PC-3
  GI50: < 0.016 µM (active)
T47D
  GI50: < 0.0164 µM (active)

## CO/N=C1/c2sccc2[C@H](NC(=O)C(F)(F)F)[C@@H]1O
BT-549
  GI50: > 100 µM (inactive)
DU-145
  GI50: > 100 µM (inactive)
Hs-578T
  GI50: > 100 µM (inactive)
MDA-MB-231
  GI50: > 100 µM (inactive)
MDA-N
  GI50: > 100 µM (inactive)
PC-3
  GI50: > 100 µM (inactive)
T47D
  GI50: > 100 µM (inactive)

## CCCCCCCCCCCCCCCC(=O)OC1C(O)C(CO)OC(OC)C1NC(=O)N(CCCl)N=O (configuration not stated)
RXF 631
  GI50: 16.8 µM (inactive)
